Measurements as given in patent US20050004186A1, “MEK inhibiting compounds” (Pfizer Inc, priority 2002, published 2005).

Columns and labels:
MEK [1] = assay: Cellular assay for measuring MEK inhibition, C26CPA1 (inhibition of ERK phosphorylation in C26 cells); type: cell-based, murine; conditions: murine colon 26 (C26) carcinoma cells, one hour at 37 C
Outline: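 Exponentially growing murine C26 carcinoma cells treated with test compound for one hour at 37° C. CPA1 read-out: Western blot of lysates with dually phosphorylated ERK1/2 antibody, re-probed for total ERK1/2. ELSA read-out: pERK enzyme immunometric ELISA on SDS lysates diluted 1:15.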

MEK [2] = assay: Cellular assay for measuring MEK inhibition, C26ELSA (pERK ELISA format in C26 cells); type: cell-based, murine; conditions: C26 cells
Description: Cellular Assay for Measuring MEK Inhibition
MEK inhibitors were evaluated by determining their ability to inhibit phosphorylation of MAP kinase (ERK) in murine colon 26 (C26) carcinoma cells. Since ERK1 and ERK2 represent the only known substrates for MEK1 and MEK2, the measurement of inhibition of ERK phosphorylation in cells provides direct read out of cellular MEK inhibition by the compounds of the invention. Detection of phosphorylation of ERK was carried out either by Western blot or ELISA format. Briefly, the assays involve treatment of exponentially growing C26 cells with varying concentrations of the test compound (or vehicle control) for one hour at 37≡ C. For Western blot assay, cells were rinsed free of compound/vehicle and lysed in a solution containing 70 mM NaCl, 50 mM glycerol phosphate, 10 mM HEPES, […], 1% Triton X-100, 1 mM Na3VO4, 100 μM PMSF, 10 μM leupeptin and 10 μM pepstatin. Supernatants were then subjected to gel electrophoresis and hybridized to a primary antibody recognizing dually phosphorylated ERK1 and ERK2. To evaluate total MAPK levels, blots were subsequently ‘stripped’ and re-probed with a 1:1 mixture of polyclonal antibodies recognizing unphosphorylated ERK1 and ERK2. For pERK ELISA assay, pERK TiterZyme Enzyme immunometric Assay kits were acquired from Assay Designs, Inc (Ann Arbor, Mich.). Briefly, cells were harvested in lysis solution containing 50 mM β-glycerophosphate, 10 mM HEPES, pH7.4, 70 mM NaCl, 2 mM EDTA and 1% SDS and protein lysates were diluted 1:15 with supplied Assay buffer prior to the execution of the assay. The subsequent steps were carried out essentially as recommended by the manufacturer.

Compound Nc1nnc(-c2ccc(F)c(F)c2Nc2ccc(I)cc2F)o1 [Example 1, 5-[3,4-Difluoro-2-(2-fluoro-4-iodo-phenylamino)-phenyl]-[1,3,4]oxadiazol-2-ylamine] has an IC50 (MEK [1]) of 40 nM and a melting point of 248 to 249 °C.

CCNc1nnc(-c2ccc(F)c(F)c2Nc2ccc(I)cc2F)o1 [Example 4, {5-[3,4-Difluoro-2-(2-fluoro-4-iodo-phenylamino)-phenyl]-[1,3,4]oxadiazol-2-yl}-ethyl-amine] gave an IC50 (MEK [1]) of 89 nM and a melting point of 188 to 189 °C.

With C=CCNc1nnc(-c2ccc(F)c(F)c2Nc2ccc(I)cc2F)o1 [Example 5, Allyl-{5-[3,4-difluoro-2-(2-fluoro-4-iodo-phenylamino)-phenyl]-[1,3,4]oxadiazol-2-yl}-amine] the IC50 (MEK [1]) was 9 nM and the melting point was 175 to 178 °C.

In the case of COc1ccc(Nc2nnc(-c3ccc(F)c(F)c3Nc3ccc(I)cc3F)o2)c(OC)c1 [Example 6, {5-[3,4-Difluoro-2-(2-fluoro-4-iodo-phenylamino)-phenyl]-[1,3,4]oxadiazol-2-yl}-(2.4-dimethoxy-phenyl)-amine], the IC50 (MEK [1]) is reported as over 1000 nM and the melting point is reported as 185 to 186 °C.

CN(C)c1ccc(Nc2nnc(-c3ccc(F)c(F)c3Nc3ccc(I)cc3F)o2)cc1 [Example 7, N-{5-[3,4-Difluoro-2-(2-fluoro-4-iodo-phenylamino)-phenyl]-[1,3,4]oxadiazol-2-yl}-N′,N′-dimethyl-benzene-1,4-diamine] showed an IC50 (MEK [1]) of over 1000 nM and a melting point of 230 to 233 °C.

OCC(O)CNc1nnc(-c2ccc(F)c(F)c2Nc2ccc(I)cc2F)o1 (stereo not shown) [Example 8, 3-{5-[3,4-Difluoro-2-(2-fluoro-4-iodo-phenylamino)-phenyl]-[1,3,4]oxadiazol-2-ylamino}-propane-1,2-diol] showed an IC50 (MEK [1]) of 67 nM and a melting point of 157 to 159 °C.

With CCN(CC)CCCNc1nnc(-c2ccc(F)c(F)c2Nc2ccc(I)cc2F)o1 [Example 10, N-{5-[3,4-Difluoro-2-(2-fluoro-4-iodo-phenylamino)-phenyl]-[1,3,4]oxadiazol-2-yl}-N′,N′-diethyl-propane-1,3-diamine] the IC50 (MEK [1]) was 153 nM and the melting point was 116 to 118 °C.

CN(C)CC(C)(C)CNc1nnc(-c2ccc(F)c(F)c2Nc2ccc(I)cc2F)o1 [Example 19, N-{5-[3,4-Difluoro-2-(2-fluoro-4-iodo-phenylamino)-phenyl]-[1,3,4]oxadiazol-2-yl}-2,2,N′,N′-tetramethyl-propane-1.3-diamine] gave an IC50 (MEK [1]) of 309 nM and a melting point of 143 to 146 °C.

For COCCN1CCN(c2nnc(-c3ccc(F)c(F)c3Nc3ccc(I)cc3F)o2)CC1 [Example 22, (2,3-Difluoro-6-{5-[4-(2-methoxy-ethyl)-piperazin-1-yl]-[1,3,4]oxadiazol-2-yl}-phenyl)-(2-fluoro-4-iodo-phenyl)-amine], the IC50 (MEK [1]) was 130 nM and the melting point was 63 to 65 °C.

For CC(C)(CO)CCCNc1nnc(-c2ccc(F)c(F)c2Nc2ccc(I)cc2F)o1 [Example 23, 5-{5-[3,4-Difluoro-2-(2-fluoro-4-iodo-phenylamino)-phenyl]-[1,3,4]oxadiazol-2-ylamino}-2,2-dimethyl-pentan-1-ol], the IC50 (MEK [1]) was 292 nM and the melting point was 67 to 70 °C.

With OC1CCN(c2nnc(-c3ccc(F)c(F)c3Nc3ccc(I)cc3F)o2)C1 (stereo not shown) [Example 24, 1-{5-[3.4-Difluoro-2-(2-fluoro-4-iodo-phenylamino)-phenyl]-[1,3,4]oxadiazol-2-yl}-pyrrolidin-3-ol] the IC50 (MEK [1]) was 170 nM and the melting point was 182 to 183 °C.

With OCC1CCN(c2nnc(-c3ccc(F)c(F)c3Nc3ccc(I)cc3F)o2)CC1 [Example 25, (1-{5-[3,4-Difluoro-2-(2-fluoro-4-iodo-phenylamino)-phenyl]-[1,3,4]oxadiazol-2-yl}-piperidin-4-yl)-methanol] the IC50 (MEK [1]) was over 1000 nM and the melting point was 90 to 92 °C.

Work on OCCC1CCN(c2nnc(-c3ccc(F)c(F)c3Nc3ccc(I)cc3F)o2)CC1 [Example 26, 2-(1-{5-[3,4-Difluoro-2-(2-fluoro-4-iodo-phenylamino)-phenyl]-[1,3,4]oxadiazol-2-yl}-piperidin-4-yl)-ethanol] yielded an IC50 (MEK [1]) of 140 nM and a melting point of 121 to 122 °C.

In the case of CCN(CCCCO)c1nnc(-c2ccc(F)c(F)c2Nc2ccc(I)cc2F)o1 [Example 27, 4-({5-[3,4-Difluoro-2-(2-fluoro-4-iodo-phenylamino)-phenyl]-[1,3,4]oxadiazol-2-yl}-ethyl-amino)-butan-1-ol], the IC50 (MEK [1]) is reported as 180 nM and the melting point is reported as 121 to 122 °C.

In the case of OC1CCN(c2nnc(-c3ccc(F)c(F)c3Nc3ccc(I)cc3F)o2)CC1 [Example 28, 1-{5-[3,4-Difluoro-2-(2-fluoro-4-iodo-phenylamino)-phenyl]-[1,3,4]oxadiazol-2-yl}-piperidin-4-ol], the IC50 (MEK [1]) is reported as 74 nM and the melting point is reported as 216 to 217 °C.

In the case of OCCNc1nnc(-c2ccc(F)c(F)c2Nc2ccc(I)cc2F)o1 [Example 29, 2-{5-[3,4-Difluoro-2-(2-fluoro-4-iodo-phenylamino)-phenyl]-[1,3,4]oxadiazol-2-ylamino}-ethanol], the IC50 (MEK [1]) is reported as 15 nM and the melting point is reported as 100 to 103 °C.

OCCCNc1nnc(-c2ccc(F)c(F)c2Nc2ccc(I)cc2F)o1 [Example 30, 3-{5-[3,4-Difluoro-2-(2-fluoro-4-iodo-phenylamino)-phenyl]-[1,3,4]oxadiazol-2-ylamino}-propan-1-ol] gave a melting point of 154 to 155 °C.

OCCCCNc1nnc(-c2ccc(F)c(F)c2Nc2ccc(I)cc2F)o1 [Example 31, 4-{5-[3,4-Difluoro-2-(2-fluoro-4-iodo-phenylamino)-phenyl]-[1,3,4]oxadiazol-2-ylamino}-butan-1-ol] showed an IC50 (MEK [1]) of 12 nM and a melting point of 82 to 83 °C.

OCCCCCNc1nnc(-c2ccc(F)c(F)c2Nc2ccc(I)cc2F)o1 [Example 32, 5-{5-[3,4-Difluoro-2-(2-fluoro-4-iodo-phenylamino)-phenyl]-[1,3,4]oxadiazol-2-ylamino}-pentan-1-ol] gave an IC50 (MEK [1]) of 120 nM and a melting point of 119 to 121 °C.

Work on CCc1ccc(Nc2c(-c3nnc(NCCNC)o3)ccc(F)c2F)c(F)c1 [Example 67, N-{5-[2-(4-Ethyl-2-fluoro-phenylamino)-3,4-difluoro-phenyl]-[1,3,4]oxadiazol-2-yl}-N′-methyl-ethane-1,2-diamine] yielded an IC50 (MEK [1]) of 16 nM and a melting point of 154 to 157 °C.

Compound CCc1ccc(Nc2c(-c3nnc(NCCN4CCOCC4)o3)ccc(F)c2F)c(F)c1 [Example 68, {5-[2-(4-Ethyl-2-fluoro-phenylamino)-3,4-difluoro-phenyl]-[1,3,4]oxadiazol-2-yl}-(2-morpholin-4-yl-ethyl)-amine] has an IC50 (MEK [1]) of 50 nM and a melting point of 233 to 238 °C.

CCc1ccc(Nc2c(-c3nnc(NCCO)o3)ccc(F)c2F)c(F)c1 [Example 69, 2-{5-[2-(4-Ethyl-2-fluoro-phenylamino)-3,4-difluoro-phenyl]-[1,3,4]oxadiazol-2-ylamino}-ethanol] gave an IC50 (MEK [1]) of 100 nM and a melting point of 100 to 103 °C.

C=CCNc1nnc(-c2ccc(F)c(F)c2Nc2ccc(CC)cc2F)o1 [Example 70, Allyl-{5-[2-(4-ethyl-2-fluoro-phenylamino)-3,4-difluoro-phenyl]-[1,3,4]oxadiazol-2-yl}-amine] showed a melting point of 120 to 123 °C.

CCNc1nnc(-c2ccc(F)c(F)c2Nc2ccc(I)cc2F)s1 [Example 71, {5-[3,4-Difluoro-2-(2-fluoro-4-iodo-phenylamino)-phenyl]-[1,3,4]thiadiazol-2-yl}-ethyl-amine] gave an IC50 (MEK [1]) of 180 nM and a melting point of 238 to 239 °C.

Work on CCc1ccc(Nc2c(-c3nnc(CC)o3)ccc(F)c2F)c(F)c1 [Example 142, (4-Ethyl-2-fluoro-phenyl)-[6-(5-ethyl-[1,3,4]oxadiazol-2-yl)-2,3-difluoro-phenyl]-amine] yielded a melting point of 82 to 83 °C.

With C#Cc1ccc(Nc2c(-c3nnc(CC)o3)ccc(F)c2F)c(F)c1 [Example 144, [6-(5-Ethyl-[1,3,4]oxadiazol-2-yl)-2,3-difluoro-phenyl]-(4-ethynyl-2-fluoro-phenyl)-amine] the “C26ELSA % Inhibition @ 5 μM” value (MEK [2]) was 43%.

For CCc1ccc(Nc2c(-c3nnc(CCCBr)o3)ccc(F)c2F)c(F)c1 [Example 145, {6-[5-(3-Bromo-propyl)-[1,3,4]oxadiazol-2-yl]-2,3-difluoro-phenyl}-(4-ethyl-2-fluoro-phenyl)-amine], the “C26ELSA % Inhibition @ 5 μM” value (MEK [2]) was 13%.

In the case of CCc1ccc(Nc2c(-c3nnc(CCCN4CCOCC4)o3)ccc(F)c2F)c(F)c1 [Example 146, {2,3-Difluoro-6-[5-(3-morpholin-4-yl-propyl)-[1,3,4]oxadiazol-2-yl]-phenyl}-(4-ethyl-2-fluoro-phenyl)-amine], the “C26ELSA % Inhibition @ 5 μM” value (MEK [2]) is reported as 6%.

For CC(=O)c1ccc(Nc2c(-c3nnc(NCCN4CCOCC4)o3)ccc(F)c2F)c(F)c1 [Example 149, 1-(4-{2,3-Difluoro-6-[5-(2-morpholin-4-yl-ethylamino)-[1,3,4]oxadiazol-2-yl]-phenylamino}-3-fluoro-phenyl)-ethanone], the “C26ELSA % Inhib @ 0.5 μM” value (MEK [2]; 0.5 μM) was 2% and the “C26ELSA % Inhibition @ 5 μM” value (MEK [2]) was 14%.
